Values joined by “and” are separate entries in the source; they are usually repeats but may differ in a detail not shown here. Identical values can stand only once. Like-named read-outs stand apart in the source and are kept apart here.
Assays:
MetRS (S. aureus) = MetRS (S. aureus) (Staphylococcus aureus, UniProt Q5HII6); test: biochemical; conditions: ATP depletion, Kinase-Glo; read-out: H) MetRS (S. aureus) ATP depletion assay using Kinase-Glo with modified cpd dilution method, IC50
MetRS (T. brucei) = MetRS (T. brucei) (Trypanosoma brucei brucei, UniProt Q38C91); test: MetRS (T. brucei) ATP depletion assay using Kinase-Glo; assay type: biochemical
T. brucei = test: Growth inhibition assay of T. brucei cell cultures (Alamar Blue, 48 h); assay type: cell-based
T. cruzi = T. cruzi growth inhibition EC50; assay type: cell-based; conditions: Trypanosoma cruzi; read-out: C) T. cruzi EC50
[1] = Trypanosoma brucei; read-out: B) T. brucei EC50

Chain of MetRS (T. brucei) (Q38C91 entry or part of it): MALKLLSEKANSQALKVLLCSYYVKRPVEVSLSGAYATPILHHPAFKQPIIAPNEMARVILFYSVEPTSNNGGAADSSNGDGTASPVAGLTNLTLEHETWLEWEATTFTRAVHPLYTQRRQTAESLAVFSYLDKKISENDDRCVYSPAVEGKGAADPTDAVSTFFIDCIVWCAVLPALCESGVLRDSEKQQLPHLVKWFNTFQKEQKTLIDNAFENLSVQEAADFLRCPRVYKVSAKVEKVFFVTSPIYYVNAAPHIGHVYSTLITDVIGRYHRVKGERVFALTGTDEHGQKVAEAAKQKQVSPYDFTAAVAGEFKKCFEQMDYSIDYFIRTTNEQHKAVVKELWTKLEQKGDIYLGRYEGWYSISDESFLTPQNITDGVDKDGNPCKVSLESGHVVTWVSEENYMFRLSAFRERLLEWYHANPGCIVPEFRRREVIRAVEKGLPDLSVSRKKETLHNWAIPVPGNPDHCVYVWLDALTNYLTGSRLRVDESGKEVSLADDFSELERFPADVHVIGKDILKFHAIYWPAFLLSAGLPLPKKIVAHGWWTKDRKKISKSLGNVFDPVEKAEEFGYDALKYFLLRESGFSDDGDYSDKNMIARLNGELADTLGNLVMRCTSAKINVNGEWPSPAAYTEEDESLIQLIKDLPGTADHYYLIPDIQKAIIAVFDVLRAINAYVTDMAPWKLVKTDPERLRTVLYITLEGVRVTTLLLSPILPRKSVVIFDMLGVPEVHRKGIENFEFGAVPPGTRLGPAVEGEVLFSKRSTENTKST
Chain of MetRS (S. aureus) (Q5HII6 whole entry): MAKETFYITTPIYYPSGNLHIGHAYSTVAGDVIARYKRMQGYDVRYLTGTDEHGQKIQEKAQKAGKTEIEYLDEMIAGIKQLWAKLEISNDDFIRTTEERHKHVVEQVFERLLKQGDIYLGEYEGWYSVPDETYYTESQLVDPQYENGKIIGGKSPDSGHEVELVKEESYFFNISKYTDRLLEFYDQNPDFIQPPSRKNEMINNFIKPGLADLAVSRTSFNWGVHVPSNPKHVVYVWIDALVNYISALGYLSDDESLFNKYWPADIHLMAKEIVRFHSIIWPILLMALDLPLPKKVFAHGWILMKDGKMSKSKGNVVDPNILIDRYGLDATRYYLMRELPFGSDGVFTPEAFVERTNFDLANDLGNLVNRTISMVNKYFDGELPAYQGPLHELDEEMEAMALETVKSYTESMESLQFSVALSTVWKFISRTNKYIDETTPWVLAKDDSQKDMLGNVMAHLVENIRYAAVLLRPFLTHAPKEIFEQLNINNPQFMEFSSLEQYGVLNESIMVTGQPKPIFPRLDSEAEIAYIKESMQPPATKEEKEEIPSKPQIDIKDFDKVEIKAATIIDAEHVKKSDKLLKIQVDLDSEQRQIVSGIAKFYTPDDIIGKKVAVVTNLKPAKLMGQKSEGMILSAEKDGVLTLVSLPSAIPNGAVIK

`Fc1ccc2nc(NCCCNc3cc(Cl)cc(Cl)c3)[nH]c2n1` [Compound 1954, 3,5-dichloro-N-[3-({5-fluoro-3H-imidazo[4,5-b]pyridin-2-yl}amino)propyl]aniline] gave an IC50 (MetRS (S. aureus)) of 928 nM, an IC50 (MetRS (T. brucei)) of 61 nM and an EC50 (T. brucei; [1]) of 369 nM. For the same compound, the EC50 (T. brucei; read-out: B) T. brucei EC50) was 565 nM.

For `N#Cc1c(NCCCNCc2cc(Cl)cc(Cl)c2)[nH]c2cccnc12` [Compound 1627, 2-(3-(3,5-dichlorobenzylamino)propylamino)-1H-pyrrolo[3,2-b]pyridine-3-carbonitrile], the EC50 (T. cruzi) was 623 nM, the IC50 (MetRS (T. brucei)) was 61 nM and the EC50 (T. brucei; [1]) was greater than 9.08 nM. The EC50 (T. brucei; read-out: B) T. brucei EC50) was 4.6 nM.

`Clc1cc(Cl)cc(NCCCNc2nc3ccc(Cl)nc3[nH]2)c1` [Compound 1967] showed an IC50 (MetRS (S. aureus)) greater than 1000 nM, an IC50 (MetRS (T. brucei)) of 88 nM and an EC50 (T. brucei; [1]) of 2300 nM.

`CC(=O)N(CCCNc1nc2ccc(F)nc2[nH]1)Cc1cc(Cl)cc(Cl)c1` [Compound 1959, N-(3,5-dichlorobenzyl)-N-(3-(5-fluoro-3H-imidazo[4,5-b]pyridin-2-ylamino)propyl)acetamide] gave an IC50 (MetRS (S. aureus)) of 12 nM, an IC50 (MetRS (T. brucei)) of 16 nM and an EC50 (T. brucei; [1]) of 39.3 nM. For the same compound, the EC50 (T. brucei; read-out: B) T. brucei EC50) was 51.1 nM.

Work on `Clc1cc(Cl)cc(CNCCc2nc3ncc(Cl)cc3[nH]2)c1` [Compound 1844, (2-{6-chloro-3H-imidazo[4,5-b]pyridin-2-yl}ethyl)[(3,5-dichlorophenyl)methyl]amine] yielded an EC50 (T. cruzi) of 5420 nM, an IC50 (MetRS (T. brucei)) of 60 nM and an EC50 (T. brucei; [1]) of 598 nM.

`N#Cc1cc(Cl)cc(CN[C@H]2CCCN(c3nc4nc(Cl)ccc4[nH]3)C2)c1` [Compound 1992, (S)-3-chloro-5-(((1-(5-chloro-1H-imidazo[4,5-b]pyridin-2-yl)piperidin-3-yl)amino)methyl)benzonitrile] showed an EC50 (T. cruzi) of 2130 nM, an IC50 (MetRS (T. brucei)) of 14 nM and an EC50 (T. brucei; [1]) of 111 nM.

Compound `CC(=O)N(CCCc1nc2nc(F)ccc2[nH]1)Cc1cc(Cl)cc(Cl)c1` [Compound 1835, N-(3,5-dichlorobenzyl)-N-(3-(5-fluoro-1H-imidazo[4,5-b]pyridin-2-yl)propyl)acetamide] has an EC50 (T. cruzi) greater than 20000 nM, an IC50 (MetRS (T. brucei)) of 23 nM and an EC50 (T. brucei; [1]) of 873 nM.

Work on `CC(=O)N(CCN(C)c1nc2nc(F)ccc2[nH]1)Cc1cc(Cl)cc(Cl)c1` [Compound 1914, N-[(3,5-dichlorophenyl)methyl]-N-[2-({5-fluoro-1H-imidazo[4,5-b]pyridin-2-yl}(methyl)amino)ethyl]acetamide] yielded an IC50 (MetRS (S. aureus)) of 303 nM, an IC50 (MetRS (T. brucei)) of 18 nM and an EC50 (T. brucei; [1]) of 252 nM.

In the case of `O=C(NCc1nc2cccnc2[nH]1)OCCc1ccc(Cl)cc1Cl` [Compound 1706, 2-(2,4-dichlorophenyl)ethyl N-{3H-imidazo[4,5-b]pyridin-2-ylmethyl}carbamate], the IC50 (MetRS (S. aureus)) is reported as 83 nM, the IC50 (MetRS (T. brucei)) is reported as 38 nM and the EC50 (T. brucei; [1]) is reported as 2760 nM.

`NN(C(=O)/C=C/Oc1ccc(Cl)cc1Cl)c1nc2ccccc2[nH]1` [Compound 1766, (2E)-N-(1H-1,3-benzodiazol-2-yl)-3-(2,4-dichlorophenoxy)prop-2-enehydrazide] was tested, and the EC50 (T. cruzi) was greater than 5000 nM, the IC50 (MetRS (T. brucei)) was 297 nM and the EC50 (T. brucei; [1]) was 3530 nM.

Compound `O=C(CCOc1ccc(Cl)cc1Cl)NCc1nc2ccc(F)nc2[nH]1` [Compound 1705, 3-(2,4-dichlorophenoxy)-N-({5-fluoro-3H-imidazo[4,5-b]pyridin-2-yl}methyl)propanamide] has an IC50 (MetRS (S. aureus)) of 1690 nM, an IC50 (MetRS (T. brucei)) of 100 nM and an EC50 (T. brucei; [1]) of 8840 nM.

`Clc1cc(Cl)cc(NC[C@@H]2CCCN(c3nc4nc(Cl)ccc4[nH]3)C2)c1` [Compound 1923, (S)-3,5-dichloro-N-((1-(5-chloro-1H-imidazo[4,5-b]pyridin-2-yl)piperidin-3-yl)methyl)aniline] gave an IC50 (MetRS (S. aureus)) of 504 nM, an IC50 (MetRS (T. brucei)) of 32 nM and an EC50 (T. brucei; [1]) of 566 nM.

`CC(=O)N(CCCc1nc2ccc(Cl)nc2[nH]1)Cc1cc(Cl)cc(Cl)c1` [Compound 1895, N-(3-(5-chloro-1H-imidazo[4,5-b]pyridin-2-yl)propyl)-N-(3,5-dichlorobenzyl)acetamide] showed an IC50 (MetRS (S. aureus)) of 445 nM, an IC50 (MetRS (T. brucei)) of 17 nM and an EC50 (T. brucei; [1]) of 569 nM.

In the case of `Cc1ccc2[nH]c(NCCCNCc3cc(Cl)cc(Cl)c3)nc2n1` [Compound 1599, N1-(3,5-dichlorobenzyl)-N3-(5-methyl-1H-imidazo[4,5-b]pyridin-2-yl)propane-1,3-diamine], the EC50 (T. cruzi) is reported as 2910 nM, the IC50 (MetRS (T. brucei)) is reported as 45 nM and 59 nM and the EC50 (T. brucei; [1]) is reported as 662 nM.

For `O=C1N[C@@H](Cc2ccc(Cl)cc2Cl)C(=O)N1Cc1nc2ccccc2[nH]1` [Compound 1754, (S)-3-((1H-benzo[d]imidazol-2-yl)methyl)-5-(2,4-dichlorobenzyl)imidazolidine-2,4-dione], the EC50 (T. cruzi) was greater than 5000 nM, the IC50 (MetRS (T. brucei)) was greater than 10000 nM and the EC50 (T. brucei; [1]) was 5890 nM.

In the case of `CN(CCN(Cc1cc(Cl)cc(Cl)c1)C(=O)CN)c1nc2nc(Cl)ccc2[nH]1` [Compound 1957, 2-amino-N-[2-({5-chloro-1H-imidazo[4,5-b]pyridin-2-yl}(methyl)amino)ethyl]-N-[(3,5-dichlorophenyl)methyl]acetamide], the IC50 (MetRS (S. aureus)) is reported as 424 nM and the IC50 (MetRS (T. brucei)) is reported as 11 nM.

With `OC(CNCc1cc(Cl)cc(Cl)c1)CNc1nc2cccnc2[nH]1` (centres unmarked) [Compound 1634, 1-((1H-imidazo[4,5-b]pyridin-2-yl)amino)-3-((3,5-dichlorobenzyl)amino)propan-2-ol] the EC50 (T. cruzi) was 9760 nM, the IC50 (MetRS (T. brucei)) was 133 nM and the EC50 (T. brucei; [1]) was 121 nM.

`CCC(=O)N(CCN(C)c1nc2nc(Cl)ccc2[nH]1)Cc1cc(Cl)cc(Cl)c1` [Compound 1942, N-(3,5-dichlorobenzyl)-N-(2-(5-chloro-N-methyl-1H-imidazo[4,5-b]pyridin-2-ylamino)ethyl)propionamide] showed an IC50 (MetRS (S. aureus)) of 104 nM, an IC50 (MetRS (T. brucei)) of 20 nM and an EC50 (T. brucei; [1]) of 145 nM.

`Clc1cc(Cl)cc(CNC2CCCC(c3nc4nc(Cl)ccc4[nH]3)C2)c1` (centres unmarked) [Compound 1788, 3-(5-chloro-1H-imidazo[4,5-b]pyridin-2-yl)-N-(3,5-dichlorobenzyl)cyclohexanamine] gave an EC50 (T. cruzi) of 4170 nM, an IC50 (MetRS (T. brucei)) of 124 nM and an EC50 (T. brucei; [1]) of 359 nM.

In the case of `CC(=O)N(Cc1cc(Cl)cc(Cl)c1)C1CCCC(c2nc3nc(F)ccc3[nH]2)C1` (centres unmarked) [Compound 1801, N-(3,5-dichlorobenzyl)-N-(3-(5-fluoro-1H-imidazo[4,5-b]pyridin-2-yl)cyclohexyl)acetamide], the EC50 (T. cruzi) is reported as 252 nM and the IC50 (MetRS (T. brucei)) is reported as 533 nM and 569 nM.

For `CN(CCN(Cc1cc(Cl)cc(Cl)c1)C(=O)CO)c1nc2ccc(Cl)nc2[nH]1` [Compound 1971, N-(3,5-dichlorobenzyl)-N-(2-(5-chloro-N-methyl-1H-imidazo[4,5-b]pyridin-2-ylamino)ethyl)-2-hydroxyacetamide], the IC50 (MetRS (S. aureus)) was 85 nM, the IC50 (MetRS (T. brucei)) was 13 nM and the EC50 (T. brucei; [1]) was 62.3 nM. It also gave an EC50 (T. brucei; read-out: B) T. brucei EC50) of 40.4 nM.

For `COC(=O)N(CCN(C)c1nc2nc(Cl)ccc2[nH]1)Cc1cc(Cl)cc(Cl)c1` [Compound 1963, methyl 3,5-dichlorobenzyl2-(5-chloro-N-methyl-1H-imidazo[4,5-b]pyridin-2-ylamino)ethylcarbamate], the IC50 (MetRS (S. aureus)) was 348 nM, the IC50 (MetRS (T. brucei)) was 21 nM and the EC50 (T. brucei; [1]) was 97.4 nM.

`Clc1cc(Cl)cc(CNCCNc2nc3ccc(Cl)cc3[nH]2)c1` [Compound 1829, {2-[(6-chloro-1H-1,3-benzodiazol-2-yl)amino]ethyl}[(3,5-dichlorophenyl)methyl]amine] gave an EC50 (T. cruzi) of 3040 nM, an IC50 (MetRS (T. brucei)) of 85 nM and an EC50 (T. brucei; [1]) of 539 nM.

In the case of `CC(=O)N(CCNc1nc2nc(F)ccc2[nH]1)Cc1cc(Cl)cc(Cl)c1` [Compound 1897, N-(3,5-dichlorobenzyl)-N-(2-((5-fluoro-1H-imidazo[4,5-b]pyridin-2-yl)amino)ethyl) acetamide], the IC50 (MetRS (S. aureus)) is reported as 606 nM, the IC50 (MetRS (T. brucei)) is reported as 16 nM and the EC50 (T. brucei; [1]) is reported as 653 nM.

Work on `O=C(CNc1nc2ccc(Cl)nc2[nH]1)NCc1cc(Cl)cc(Cl)c1` [Compound 1970, 2-((5-chloro-3H-imidazo[4,5-b]pyridin-2-yl)amino)-N-(3,5-dichlorobenzyl)acetamide] yielded an IC50 (MetRS (S. aureus)) of 1080 nM, an IC50 (MetRS (T. brucei)) of 69 nM and an EC50 (T. brucei; [1]) of 2980 nM.

For `Clc1ccc2[nH]c(N3CCC[C@H](NCc4cc(Br)cc(Br)c4)C3)nc2n1` [Compound 1908, (S)-1-(5-chloro-1H-imidazo[4,5-b]pyridin-2-yl)-N-(3,5-dibromobenzyl) piperidin-3-amine], the IC50 (MetRS (S. aureus)) was 155 nM, the IC50 (MetRS (T. brucei)) was 15 nM and the EC50 (T. brucei; [1]) was 85.2 nM.

With `Oc1c(Cl)cc(Cl)cc1CN[C@H]1CCCN(c2nc3nc(Cl)ccc3[nH]2)C1` [Compound 1921] the IC50 (MetRS (S. aureus)) was 1570 nM, the IC50 (MetRS (T. brucei)) was 25 nM and the EC50 (T. brucei; [1]) was 241 nM.

In the case of `O=c1[nH]c(Cc2ccc(Cl)cc2Cl)cn1Cc1nc2ccc(F)nc2[nH]1` [Compound 1962, 5-(2,4-dichlorobenzyl)-3-((5-fluoro-3H-imidazo[4,5-b]pyridin-2-yl)methyl)-1H-imidazol-2(3H)-one], the IC50 (MetRS (S. aureus)) is reported as 17 nM, the IC50 (MetRS (T. brucei)) is reported as 19 nM and the EC50 (T. brucei; [1]) is reported as 12.9 nM.

Compound `CN(CCN(Cc1cc(Cl)cc(Cl)c1)C(=O)CCN)c1nc2nc(Cl)ccc2[nH]1` [Compound 1958, 3-amino-N-[2-({5-chloro-1H-imidazo[4,5-b]pyridin-2-yl}(methyl)amino)ethyl]-N-[(3,5-dichlorophenyl)methyl]propanamide] has an IC50 (MetRS (S. aureus)) of 381 nM, an IC50 (MetRS (T. brucei)) of 13 nM and an EC50 (T. brucei; [1]) of 62.4 nM. It also gave an EC50 (T. brucei; read-out: B) T. brucei EC50) of 33.1 nM.

In the case of `CCOc1c(Cl)cc(Cl)cc1CNCCN(C)c1nc2nc(Cl)ccc2[nH]1` [Compound 1925, 5-chloro-N-(2-{[(3,5-dichloro-2-ethoxyphenyl)methyl]amino}ethyl)-N-methyl-3H-imidazo[4,5-b]pyridin-2-amine], the IC50 (MetRS (S. aureus)) is reported as 266 nM, the IC50 (MetRS (T. brucei)) is reported as 15 nM and the EC50 (T. brucei; [1]) is reported as 314 nM.

With `Clc1cc(Cl)cc(CNc2cccc(-c3nc4ccc(Cl)nc4[nH]3)c2)c1` [Compound 1966, 3-{5-chloro-3H-imidazo[4,5-b]pyridin-2-yl}-N-[(3,5-dichlorophenyl)methyl]amine] the IC50 (MetRS (S. aureus)) was 5730 nM, the IC50 (MetRS (T. brucei)) was 72 nM and the EC50 (T. brucei; [1]) was 1030 nM.

`CN(CCN(Cc1cc(Cl)cc(Cl)c1)C(N)=O)c1nc2ccc(Cl)nc2[nH]1` [Compound 1972, 1-(3,5-dichlorobenzyl)-1-(2-(5-chloro-N-methyl-1H-imidazo[4,5-b]pyridin-2-ylamino)ethyl)urea] was tested, and the IC50 (MetRS (S. aureus)) was 140 nM and the IC50 (MetRS (T. brucei)) was 27 nM.
